Assay results published in patent US7371834B2, “Apoptosis-inducing factor” (Amgen Inc., priority 1998, dated 2008).
Peptide text beside a SMILES is read from it. * marks the point of attachment. Cbz = O=C(OCc1ccccc1)*; CH2F = FC*

Key:
[1] = system: HeLa nuclei; assay: Pulse field gel electrophoresis of DNA from AIF-treated HeLa nuclei; format: biochemical; details: 90 min with 100 ng AIF; 200 μM p-chloromercuryphenylsulfonic acid, 200 μM Z-VAD.fmk, 5 mM EDTA
Experimental: In addition, each nuclear preparation was assessed for the frequency of hypoploid nuclei as in A.
(§1) 2B4.11 T cell hybridoma cells stably transfected with a SFFV.neo vector containing the human bcl-2 gene or the neomycin resistance gene (Neo) only [Susin et al., J. Exp. Med. 184:1331-1342 (1996)] were subjected to mechanical lysis and differential centrifugation for the subsequent recovery of nuclei, mitochondria, and organelle-free cytosols [Liu et al. Cell 86:147-157 (1996)]. Submitochondrial fractionation of mouse liver mitochondria was controlled by the determination of suitable marker enzymes [Susin et al., J. Exp. Med. 186:25-37 (1997); Pedersen et al., Meth. Cell Biol. 20:411-481 (1978)]. Purified HeLa cell nuclei were exposed to different preparations of AIF, and nuclear apoptosis was quantitated by staining with DNA-intercalating propidium iodide and cytofluorometric determination of DNA content [Susin et al., J. Exp. Med. 186:25-37 (1997)]. Alternatively, nuclei were stained with Hoechst 33342 dye or subjected to DNA extraction and pulse field gel electrophoresis. […] The release of cytochrome c and caspase-9 into the supernatant was measured by immunoblot using a monoclonal anti-cytochrome c antibody (7H8.2C12, Pharmingen), or a rabbit antibody directed against the large subunit of caspase-9 (Hazelton Research Products Inc., Denver, Pa.).

[2] = system: purified rat liver mitochondria; assay: Large amplitude swelling of purified mitochondria; format: biochemical; details: Z-VAD.fmk 100-200 μM
Experimental: Purified rat liver mitochondria were monitored continuously for large amplitude swelling. Arrows indicate the addition of Ca^2+(200 μM; positive control), AIF (100 ng/ml), cytosol (100 μg protein per ml), and/or Z-VAD.fmk (100 μM, pre-added to the cytosol/AIF mixture). Note that only the combined addition of AIF plus cytosol (right panel) causes mitochondrial swelling.
as §1, with “Submitochondrial fractionation of mouse liver mitochondria was controlled by the determination of suitable marker enzymes [Susin et al., J. Exp. Med. 186:25-37 (1997); Pedersen et al., Meth. Cell Biol. 20:411-481 (1978)].” left out, “(1997)].” for “(1997)]. Alternatively, nuclei were stained with Hoechst 33342 dye or subjected to DNA extraction and pulse field gel electrophoresis.”

[3] = system: isolated mitochondria; assay: Release of cytochrome c and caspase-9 from isolated mitochondria (immunoblot of supernatants); format: biochemical, rat; details: rec. AIF+cytosol+Z-VAD.fmk
Experimental: Isolated mitochondria were subjected to osmotic lysis (1) or treated as in A (15 min) with buffer only (2), rec. AIF (3), cytosol (4), rec. AIF+cytosol (5), or rec. AIF+cytosol+Z-VAD.fmk (6) and their supernatants were subjected to immunoblot analysis of cytochrome c and caspase-9.
as §1, with “Cell Biol. 20:411-481 (1978)].” left out, “(1997)].” for “(1997)]. Alternatively, nuclei were stained with Hoechst 33342 dye or subjected to DNA extraction and pulse field gel electrophoresis.”

[4] = system: caspase; assay: Cleavage of caspase substrate by mitochondrial supernatants; format: biochemical
Experimental: The same mitochondrial supernatants as in FIG. 3F were tested for their capacity to cleave the caspase substrate Z-VAD.afc, leading to the generation of the fluorochrome afc. The 100% value refers to the enzymatic activity obtained by osmotic lysis of mitochondria

[5] = system: Rat-1 cells; assay: Microinjection into the cytoplasm of Rat-1 cells, quantitation of apoptosis; format: cell-based; details: 100 μM Z-VAD.fmk
Experimental: FIGS. 4A-4D show the effects of AIF on intact cells. […] Buffer only or recombinant AIF (10 μM) were injected into the cytoplasm of Rat-1 cells, which were cultured for 90 min in the absence or presence of 100 μM Z-VAD.fmk (added 15 min before injection). Microinjected cells could be identified because the injectate contained FITC-dextran (green fluorescence not shown). Representative (three independent experiments, 100-200 microinjected cells per session) microphotographs of viable cells stained with the DYm-sensitive dye CMXRos and Hoechst 33342 (as in FIG. 2E., upper panels) or Annexin-V, which labels surface-exposed phosphatidylserine residues (red fluorescence in lower panels).
(§2) Rat-1 fibroblast cells were microinjected (pressure 150 hPa; 0.2 sec; Marzo et al., Science 281:2027-2031 (1998)) with buffer only, atractyloside (50 μM), dialyzed antisera, AIF-derived peptides (100 μM), horse cytochrome c (Sigma), or the indicated dose of recombinant mAIF. The caspase inhibitor Z-VAD.fmk (100 μM; Bachem, Basel Switzerland) was added to the culture medium 30 min before microinjection into the cytoplasm (pressure 150 hPa; 0.2 sec). […] Microinjected viable cells (100-200 per session, two to three independent sessions of injection) were identified by inclusion of 0.25% (w:v) FITC-dextran (green fluorescence) in the injectate. Only the blue or red fluorescence was recorded. […]

[6] = system: Rat-1 cells; assay: Microinjection of anti-AIF antiserum into Rat-1 cells treated with atractyloside or staurosporin; format: cell-based; details: for retention of DYm-sensitive dye CMXRos by cells: atractyloside 50 μM injected, staurosporin 1 μM, 120 min
Experimental: Rat-1 cells were microinjected with atractyloside (ATR, 50 μM) alone, or atractyloside diluted in control serum, anti-AIF antiserum, and/or 100 μM AIF-derived immunogenic peptides. 180 min after microinjection, cells were stained with Hoechst 33342 and CMXRos (as in FIG. 4A, upper panel). Alternatively, cells were cultured for 120 min with staurosporin (1 μM, as in FIGS. 2C-2E), added to the culture medium after microinjection of control antiserum or anti-AIF.
Rat-1 fibroblast cells were microinjected (pressure 150 hPa; 0.2 sec; Marzo et al., Science 281:2027-2031 (1998)) with buffer only, atractyloside (50 μM), dialyzed antisera, AIF-derived peptides (100 μM), horse cytochrome c (Sigma), or the indicated dose of recombinant mAIF. The caspase inhibitor Z-VAD.fmk (100 μM; Bachem, Basel Switzerland) was added to the culture medium 30 min before microinjection into the cytoplasm (pressure 150 hPa; 0.2 sec). […] Microinjected viable cells (100-200 per session, two to three independent sessions of injection) were identified by inclusion of 0.25% (w:v) FITC-dextran (green fluorescence) in the injectate. Only the blue or red fluorescence was recorded. Transfection of Jurkat T lymphoma cells was performed using AIF cloned in pcDNA3.1 (Invitrogen) vector and Lipofectamine® (Gibco Life Technologies). Cytofluorometric analyses of apoptosis-associated parameters were performed as described [Kroemer et al., “Detection of apoptosis and apoptosis associated alterations,” “The Immunology Methods Manual” (Lefkovitz, R. Ed.); Academic Press, Chapter 14.2., pp. 1111-1125 (1997)].

[7] = system: mouse liver mitochondria; assay: AIF liberation from mitochondria by PT pore opening (Western blot of supernatants); format: biochemical; details: 5 mM atractyloside, 200 μM Ca2+
Experimental: FIGS. 2A-2F show the submitochondrial and subcellular distribution of AIF in normal and apoptotic cells. […] Western blots were performed on total mouse liver mitochondrion lysate (1), proteins from the matrix (2), inner membrane (3), intermembrane space (4), outer membrane (5), the supernatant of untreated mitochondria (6), or that of mitochondria treated with 5 mM atractyloside (7), 200 μM Ca^2+ (8), 1 μM cyclosporin A (9), atractyloside+CsA (10), or Ca^2++cyclosporin A (11). In addition, the supernatant of atractyloside-treated mitochondria was sham-immunodepleted using a pre-immune serum (12), or AIF-immunodepleted in the absence (13) or presence (14) of AIF-derived immunogenic peptides (see Example 2, below) capable of blocking the AIF antiserum. Aliquots of each preparation were tested for their capacity to induce nuclear hypoploidy in isolated HeLa nuclei.

[8] = system: Rat-1 fibroblasts; assay: Nuclear phenotype of staurosporine-treated Rat-1 fibroblasts; format: cell-based; details: Neo cells; staurosporine 1 μM, 2 h
From the text: In Neo cells, staurosporine treatment leads to the generation of two phenotypes, one with partial chromatin condensation (˜80% of cells, stage I), and another with more advanced chromatin condensation and nuclear fragmentation (˜20% of cells, stage II), as identified by phase contrast microscopy or counter-staining with Hoechst 33342 (not shown). Arrow heads are placed in the center of the nucleus.
Specifically, Rabbit antiserum was generated against a mixture of 3 peptides derived from the mAIF amino acid sequence (amino acid nos. 151-170, 166-185, 181-200, coupled to KLH). This antiserum (ELISA titer ˜10.000) was used in immunoblots (1/2000) and on paraformaldehyde/picrylic acid-fixed [Bossy-Wetzel et al., EMBO J. 17:37-49 (1998)] […] Cytochrome c was detected by immunofluorescence (mAb 6H2.B4 from Pharmingen) in fixed Rat-1 cells transfected with a control vector (Neo) or with human Bcl-2 [Zhu et al., EMBO J. 15:4130-4141 (1996)] as described [Bossy-Wetzel et al., EMBO J. 17, 37-49 (1998)], whereas the DYm sensitive dye CMXRos (100 nM, red fluorescence) was used on live cells [Marzo et al., Science 281, 2027-2031 (1998)]. Cells were counterstained with the Hoechst 33342 dye (1 μM, blue fluorescence). […]

[9] = system: Jurkat cells; assay: Transfection-enforced AIF overexpression in Jurkat cells; format: cell-based; details: 24 hours after transfection
Experimental: Jurkat cells were transiently transfected with pcDNA3.1 vector only (control) or mouse AIF cDNA (under the control of a cytomegalovirus promoter, see pcDNA3.1 vector from Invitrogen). After 24 hours of culture, cells were stained with the indicated fluorochromes to determine the frequency of apoptosis-associated alterations: loss of DYm (fluorochrome: DiOC(6)3), phosphatidylserine exposure (fluorochrome: Annexin V-FITC), or loss of nuclear DNA (fluorochrome: propidium iodide, PI, after ethanol permeabilization). Numbers refer to the percentage of cells bearing apoptotic characteristics. Results are representative of 3 different experiments.
as §2

## O=C(O)CN(CCN(CC(=O)O)CC(=O)O)CC(=O)O [EDTA]
[1]
  inhibition of AIF-induced large-scale DNA fragmentation: inhibited

## COC(=O)C[C@H](NC(=O)[C@H](C)NC(=O)[C@@H](NC(=O)OCc1ccccc1)C(C)C)C(=O)CF [Z-VAD.fmk] (Cbz-Val-Ala-Asp(OMe)-CH2F)
[2]
  prevention of AIF effects on isolated nuclei or on mitochondria: None of these AIF effects, either on isolated nuclei or on mitochondria, is prevented
[3]
  inhibition of AIF-induced release of caspase-9: does not inhibit the release of caspase-9 but rather interferes with its proteolytic activation
[4]
  inhibition of caspase-substrate-cleaving activity in supernatant of mitochondria treated with AIF plus cytosol: Z-VAD.fmk-inhibitable
[5]
  inhibition of effects mediated by microinjected AIF: None of the effects mediated by microinjected AIF is inhibited
[5]; microinjected cytochrome c
  prevention of cytochrome c-induced apoptosis: succeeds in preventing cytochrome c-induced, caspase-dependent apoptosis

## C=C1[C@@H]2CC[C@H]3[C@]4(C)C[C@H](O[C@@H]5O[C@H](CO)[C@@H](OS(=O)(=O)O)[C@H](OS(=O)(=O)O)[C@H]5OC(=O)CC(C)C)C[C@@H](C(=O)O)[C@H]4CC[C@]3(C2)[C@H]1O [atractyloside]
[6]
  retention of DYm-sensitive dye CMXRos by cells: do not retain the DYm-sensitive dye CMXRos
[7]
  release of 57 kDa AIF protein from mitochondria: released upon PT pore opening

## [Ca+2] [calcium]
[7]
  release of 57 kDa AIF protein from mitochondria: released upon PT pore opening

## O=S(=O)(O)c1cc[c]([Hg][Cl])cc1 [p-chloromercuryphenylsulfonic acid]
[1]
  inhibition of AIF-induced large-scale DNA fragmentation: inhibited

## CN[C@@H]1C[C@H]2O[C@@](C)([C@@H]1OC)n1c3ccccc3c3c4c(c5c6ccccc6n2c5c31)C(=O)NC4 [staurosporine]
[6]
  retention of DYm-sensitive dye CMXRos by cells: do not retain the DYm-sensitive dye CMXRos
[8]
  cells with more advanced chromatin condensation and nuclear fragmentation (stage II): ~20 % of cells
  cells with partial chromatin condensation (stage I): ~80 % of cells

## CC(C)(C)OO [tert-butylhydroperoxide]
[7]
  release of 57 kDa AIF protein from mitochondria: released upon PT pore opening

## immunogenic peptides: 3 peptides derived from the mAIF amino acid sequence (amino acid nos. 151-170, 166-185, 181-200) (peptide 1 LLIGGGTAAFAAARSIRARD; peptide 2 IRARDPGARVLIVSEDPELP; peptide 3 DPELPYMRPPLSKELWFSDD)
[6]; 100 μM AIF-derived immunogenic peptides
  inhibitory effect of AIF-specific antibody when co-injected with excess immunogenic peptides: No such inhibitory effect is observed

B1: wild type AIF: AIF overexpressed in Jurkat cells by transient transfection of mouse AIF cDNA in pcDNA3.1 (protein, UniProt Q9Z0X1 1-612, looked up)
chain: MFRCGGLAGAFKQKLVPLVRTVYVQRPKQRNRLPGNLFQQWRVPLELQMARQMASSGSSGGKMDNSVLVLIVGLSTIGAGAYAYKTIKEDQKRYNERVMGLGLSPEEKQRRAIASATEGGSVPQIRAPSHVPFLLIGGGTAAFAAARSIRARDPGARVLIVSEDPELPYMRPPLSKELWFSDDPNVTKTLQFRQWNGKERSIYFQPPSFYVSAQDLPNIENGGVAVLTGKKVVHLDVRGNMVKLNDGSQITFEKCLIATGGTPRSLSAIDRAGAEVKSRTTLFRKIGDFRALEKISREVKSITVIGGGFLGSELACALGRKSQASGIEVIQLFPEKGNMGKILPQYLSNWTMEKVKREGVKVMPNAIVQSVGVSGGRLLIKLKDGRKVETDHIVTAVGLEPNVELAKTGGLEIDSDFGGFRVNAELQARSNIWVAGDAACFYDIKLGRRRVEHHDHAVVSGRLAGENMTGAAKPYWHQSMFWSDLGPDVGYEAIGLVDSSLPTVGVFAKATAQDNPKSATEQSGTGIRSESETESEASEITIPPSAPAVPQVPVEGEDYGKGVIFYLRDKVVVGIVLWNVFNRMPIARKIIKDGEQHEDLNEVAKLFNIHED
modifications: full-length
[9]
  apoptosis-associated alterations after AIF overexpression: induces DYm collapse, phosphatidylserine exposure, and hypoploidy
